Data: publication PMC7904827 (Scientific Reports, 2021)
Structures can show the parent of a compound that is named as a salt.

Columns and labels:
[1] = tested on: neonatal ventricular cardiomyocytes (NVCMs); assay: Toxicity of the prodrugs alone in NVCMs (LDH release); type: cell-based, rat; set-up: key to LDH release, statistical significance compared to control: c - compared to control; P ≤ 0.01; settings: prodrug alone 1–100 µM, NVCMs; n.s. or c in Fig. S2
Experimental: (§1) After 3 h, DAU solution (1.2 µM) was added to the media. After another 3 h, the medium was replaced with new (drug-free) exposure medium, and the cardiomyocytes were then kept until the end of the experiment. In addition to cytoprotective properties, the toxicity of the studied agent was also examined; this experiment was performed as described above with only the DAU addition step omitted.
(§2) Forty-five hours after the last medium exchange, a sample of medium was taken from each well to assess lactate dehydrogenase (LDH) activity[27]–[29]. For details, see the Supplementary material.
(§3) 1.5 LDH activity evaluation
(§4) The control wells were treated with lysis buffer (0.1 M potassium phosphate, 1% Triton
(§5) X-100, 1 mM DTT, 2 mM EDTA; pH 7.8; 15 min; room temperature) to measure the total
(§6) cellular LDH level (sum of the activity in the control medium and the lysate). The activity of
(§7) LDH was assayed in Tris-HCl buffer (pH 8.9) containing 35 mM sodium lactate and 5 mM
(§8) NAD+. The rate of NAD+ reduction was monitored spectrophotometrically at 340 nm for 2 min.
(§9) The slope of the linear region and molar absorption coefficient e = 6.22*10 3 M/cm were used
(§10) to calculate the LDH activity, and the data were expressed as a percentage of total L DH activity. […]

[2] = tested on: neonatal ventricular cardiomyocytes (NVCMs); assay: In vitro cardioprotection bioassay against daunorubicin toxicity (LDH release); type: cell-based, rat; settings: 3 h preincubation, DAU 1.2 µM, LDH release after 48 h
Experimental: NVCMs were isolated in-house from 1- to 3-day-old Wistar rats as described previously. The use of animals and experimental protocols were approved by Charles University, Faculty of Pharmacy Animal Welfare Committee. All experiments were performed in accordance with Directive 2010/63/EU on the Protection of Animals Used for Scientific Purposes and in compliance with Animal Research: Reporting of In Vivo Experiments (ARRIVE) guidelines. Newly isolated cardiomyocytes were left for 40 h to form a monolayer of spontaneously beating cardiomyocytes in seeding medium (DMEM/F12 supplemented with 10% HS, 5% FBS, 4% PYR and 1% P/S), which was then replaced with culture medium (DMEM/F12 supplemented with 5% FBS, 4% PYR and 1% P/S). The medium was replaced again after 24 h for new culture medium.
as §1, §2, §3, §4, §5, §6, §7, §8, §9, §10

[3] = Approximate solubility in distilled water at room temperature; type: physicochemical; settings: distilled water, room temperature
Experimental: The syntheses of the target prodrugs were performed according to a known three-step procedure with some modifications. Target prodrugs GK-667, GK-678 and GK-691 were obtained in 34%, 37% and 17% overall yields, respectively. […] The resulting solutions remained physically stable for at least two hours at room temperature.

[4] = ICRF-193 release from the prodrugs during incubation in DMEM (thermomixer, UHPLC-MS/MS); type: in vitro ADME; settings: 100 µM, 37 °C
Experimental: All samples were spiked with the internal standards. DMEM or buffer (100 μL) was diluted with an ice-cold methanol/water mixture (20:80, v/v), mixed and analyzed. Plasma (50 μL) was precipitated with ice-cold methanol (1:5, v/v), mixed (20 s) and centrifuged (10 min, 10,000 rpm, 4 °C). NVCM pellets (4.8 × 10^6 cells) were precipitated with ice-cold methanol (250 μL), mixed (20 s), sonicated in a cold ultrasonic bath (75 s), mixed (30 s) and centrifuged (10 min, 10,000 rpm, 4 °C). The supernatants from the plasma and NVCM extractions were filtered (0.22 μm, PVDF) prior to analysis. For assay of the prodrugs, the samples were acidified with formic acid to a final concentration of 0.5%.
The samples were analyzed using two UHPLC instruments both coupled to a triple quadrupole mass spectrometer. […] Positive ionization mode was used in both methods. The analytical columns tested are characterized in the Supplementary materials.
The prodrugs (100 μM) were incubated (37 °C) in DMEM in a thermomixer (Thermomixer Comfort, Eppendorf, Germany) under gentle mixing (350 rpm) for 48 h.
From all of the above described experiments, samples were taken at predefined intervals, treated and immediately analyzed. All experiments were performed in four replicates, and the results are expressed as the mean ± SD.

solubility [3] [mg/mL] | prodrug degradation in DMEM [4] | AUC0–3 h of ICRF-193 concentrations ([4]; GK-667 compared with GK-678) | Compound | LDH release, statistical significance compared to control [1] | lowest concentration with significant protection against DAU-induced toxicity [2] [µM]
~10 |  |  | C[C@H]([C@H](C)N1CC(=O)N(COC(=O)[C@@H](N)Cc2ccccc2)C(=O)C1)N1CC(=O)N(COC(=O)[C@@H](N)Cc2ccccc2)C(=O)C1 [GK-691, meso-2,3-bis(4-((S)-2-amino-3-phenylpropionyloxymethyl)-3,5-dioxopiperazin-1-yl)butane tetrahydrochloride] | c | 3
~20 | fastest degradation | no statistically significant differences | C[C@H](N)C(=O)OCN1C(=O)CN([C@H](C)[C@H](C)N2CC(=O)N(COC(=O)[C@H](C)N)C(=O)C2)CC1=O [GK-678, meso-2,3-bis(4-((S)-2-aminopropionyloxymethyl)-3,5-dioxopiperazin-1-yl)butane tetrahydrochloride] | n.s. | 3
